Source: US10981932B2, “Macrocyclic indole derivatives” (Bayer Aktiengesellschaft, priority 2016, dated 2021)
Where “and” joins values, the source holds several entries; their conditions need not be identical. Identical values can stand only once. Counter-ions that a name gives are not always drawn. Like-named read-outs stand apart in the source and are kept apart here.

What was measured:
A2780 = assay: Anti-proliferative effect (CellTiter-Glo, 72 h), A2780; format: cell-based; settings: A2780 cells, median, read-out: IC50 antiproliferation assay A2780 [M] (median)
In short: (§1)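 CellTiter-Glo luminescence readout of viability, taken on a time-zero plate at day 0 and on treated plates after 72 h incubation at 37 °C in a humidified incubator. Reagent incubation 10 min before reading.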

SUDHL10 [1] = assay: Induction of caspase-3/7 activity (Caspase-Glo 3/7), SUDHL10; format: cell-based; settings: caspase-3/7 induction, SUDHL10 cells, 3 h treatment; median
In short: (§2)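 Caspase-Glo 3/7 luminescence measured after 3 h compound exposure at 37 °C in SUDHL10 and SUDHL5 cells. EC50 values come from background-corrected signals, with curve bottom set to 1 and plateau set to maximal induction by the reference compound.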

SUDHL10 [2] = assay: Anti-proliferative effect (CellTiter-Glo, 72 h), SUDHL10; format: cell-based; settings: SUDHL10 cells, antiproliferation, 72 h incubation, median, read-out: Antiproli SUDHL10 [M] (median)
In short: as §1

SUDHL10 [3] = assay: Induction of cytotoxicity (CellTiter-Glo, 5 h), SUDHL10; settings: read-out: Cytotox SUDHL10 [M] (median); SUDHL10 cells, cytotoxicity induction, CellTiter-Glo, 5 h incubation, median
MCL-1 = MCL-1 (Homo sapiens, UniProt Q07820); assay: Protein-protein interaction assay MCL-1/Noxa BH3 peptide (MCL-1 assay), TR-FRET; format: binding; settings: MBP-MCL-1 / Noxa BH3-derived peptide, median
MCL-1, sequence (Q07820 whole entry): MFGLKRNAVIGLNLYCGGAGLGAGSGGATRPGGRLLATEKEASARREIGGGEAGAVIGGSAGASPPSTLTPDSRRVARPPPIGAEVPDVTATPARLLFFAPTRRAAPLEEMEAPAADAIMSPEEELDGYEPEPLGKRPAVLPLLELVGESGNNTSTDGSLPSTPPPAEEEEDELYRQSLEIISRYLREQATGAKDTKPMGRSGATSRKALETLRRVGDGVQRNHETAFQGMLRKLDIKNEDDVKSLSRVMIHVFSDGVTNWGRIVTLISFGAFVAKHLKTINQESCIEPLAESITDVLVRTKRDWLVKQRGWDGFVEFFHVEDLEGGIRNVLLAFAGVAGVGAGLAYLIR
In short: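 MBP-MCL-1 (1 nM final) was preincubated 10 min at 22 °C with compounds (11 concentrations, 0.1 nM–20 μM, duplicates) in Tris pH 7 buffer with NaCl, KF, Tween-20, DTT and BGG. After 1 h at 22 °C in the dark plus overnight at 4 °C, anti-MBP Eu-cryptate/streptavidin-XL665 TR-FRET was read; IC50 came from a 4-parameter fit.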

OPM2 = assay: Anti-proliferative effect (CellTiter-Glo, 72 h), OPM2; format: cell-based; settings: OPM2 cells, median, read-out: IC50 antiproliferation assay OPM2 [M] (median)
In short: as §1

SUDHL5 [4] = assay: Induction of caspase-3/7 activity (Caspase-Glo 3/7), SUDHL5; format: cell-based; settings: caspase-3/7 induction, SUDHL5 cells, 3 h treatment; median
In short: as §2

SUDHL5 [5] = assay: Induction of cytotoxicity (CellTiter-Glo, 5 h), SUDHL5; settings: read-out: Cytotox SUDHL5 [M] (median); SUDHL5 cells, cytotoxicity induction, CellTiter-Glo, 5 h incubation, median
SUDHL5 [6] = assay: Anti-proliferative effect (CellTiter-Glo, 72 h), SUDHL5; format: cell-based; settings: SUDHL5 cells, antiproliferation, 72 h incubation, median, read-out: Antiproli SUDHL5 [M] (median)
In short: as §1

| SMILES | IC50 (A2780; Homo sapiens, A2780, 72 h) | EC50 (SUDHL10 [1]) | IC50 (SUDHL10 [2]) | IC50 (SUDHL10 [3]) | IC50 (MCL-1) | IC50 (OPM2) | EC50 (SUDHL5 [4]) | IC50 (SUDHL5 [5]) | IC50 (SUDHL5 [6]; Homo sapiens, SU-DHL-5, 72 h) | IC50 (SUDHL10 [2]; Homo sapiens, SU-DHL10, 72 h) | IC50 (OPM2; Homo sapiens, OPM-2, 72 h) | IC50 (SUDHL5 [6]) | IC50 (A2780) |
| --- | --- | --- | --- | --- | --- | --- | --- | --- | --- | --- | --- | --- | --- |
| CCOCc1nn(C)c2c1-c1cccc3c(CCCOc4cccc5c4CCCC5)c(C(=O)O)n(c13)CCCCOC2 (single isomer, unassigned; enantiomer 1) [Example 171, 3-(ethoxymethyl)-1-methyl-7-[3-(5,6,7,8-tetrahydronaphthalen-1-yloxy)propyl]-1,10,11,12,13,15-hexahydropyrazolo[4′,3′:9,10][1,6]oxazacycloundecino[8,7,6-hi]indole-8-carboxylic Acid (Enantiomer 1)] | > 3.3e-05 M | 13.4 µM | 6.45e-06 M | 1.39e-05 M | 0.00268 µM | 1.23e-05 M | 6.48 µM | 5.08e-06 M | 2.24e-06 M | – | – | – | – |
| CN(C)S(=O)(=O)N1CCN(c2ccc(OCc3nn(C)c4c3-c3cccc5c(CCCOc6cccc7ccccc67)c(C(=O)O)n(c35)CCCCOC4)cc2)CC1 (single isomer, unassigned; enantiomer 2) [Example 1-20, 3-({4-[4-(dimethylsulfamoyl)piperazin-1-yl]phenoxy}methyl)-1-methyl-7-[3-(naphthalen-1-yloxy)propyl]-1,10,11,12,13,15-hexahydropyrazolo[4′,3′:9,10][1,6]oxazacycloundecino[8,7,6-hi]indole-8-carboxylic Acid (Enantiomer 2)] | 1.38e-05 M | 1.95 µM | – | 3.06e-06 M | 0.00285 µM | – | 1.63 µM | 2.11e-06 M | – | 2.19e-06 M | 2.32e-06 M | 1.25e-06 M | – |
| Cn1nc(COc2ccc(N3CCN(C(=O)C4CC4)CC3)cc2)c2c1COCCCCn1c(C(=O)O)c(CCCOc3cccc4ccccc34)c3cccc-2c31 (single isomer, unassigned; enantiomer 2) [Example 1-23, 3-({4-[4-(cyclopropylcarbonyl)piperazin-1-yl)phenoxy]methyl}-1-methyl-7-[3-(naphthalen-1-yloxy)propyl]-1,10,11,12,13,15-hexahydropyrazolo[4′,3′:9,10][1,6]oxazacycloundecino[8,7,6-hi]indole-8-carboxylic acid (enantiomer 2)] | – | 23 µM | 5.59e-06 M | > 3.3e-05 M | 0.0323 µM | 1.7e-05 M | 21.3 µM | 2.45e-05 M | – | – | – | 1.15e-05 M | 1.43e-05 M |
| Cc1nn(C)c2c1-c1cccc3c(CCCOc4cccc5ccccc45)c(C(=O)O)n(c13)CCCN(C)C2 (single isomer, unassigned; enantiomer 2) [Example 1-32, 7,9,11-trimethyl-1-[3-(naphthalen-1-yloxy)propyl]-4,5,6,7,8,9-hexahydropyrazolo[3′,4′:7,8][1,5]diazecino[9,10,1-hi]indole-2-carboxylic Acid-N-ethylethanamine Salt (Enantiomer 2)] | – | 22.9 µM and 20.4 µM and > 33 µM | 1.18e-05 M | 3.23e-05 M | 0.0492 µM | 2.76e-05 M | > 33 µM | > 3.3e-05 M | – | – | – | 1.63e-05 M | 1.82e-05 M |
| Cc1c2c(nn1C)COCCCCn1c(C(=O)O)c(CCCOc3cccc4ccccc34)c3cccc-2c31 (single isomer, unassigned; enantiomer 2) [Example 1-38, (−)-2,3-dimethyl-7-[3-(naphthalen-1-yloxy)propyl]-2,10,11,12,13,15-hexahydropyrazolo[4′,3′:9,10][1,6]oxazacycloundecino[8,7,6-hi]indole-8-carboxylic Acid (Enantiomer 2)] | – | > 33 µM | 1.49e-05 M | > 3.3e-05 M | 0.0751 µM | 3.22e-05 M | > 33 µM | > 3.3e-05 M | – | – | – | 2.3e-05 M | > 3.3e-05 M |
| Cc1nn(C)c2c1-c1cccc3c(CCCOc4cccc5ccccc45)c(C(=O)O)n(c13)CCCN(c1ccc(N3CCOCC3)cc1)C2 (single isomer, unassigned; enantiomer 2) [Example 1-100, 9,11-Dimethyl-7-[4-(morpholin-4-yl)phenyl]-1-[3-(1-naphthyloxy)propyl]-4,5,6,7,8,9-hexahydropyrazolo[3′,4′:7,8][1,5]diazecino[9,10,1-hi]indole-2-carboxylic Acid (Enantiomer 2)] | – | > 33 µM and 30.6 µM | 6.21e-06 M | > 3.3e-05 M and 3.29e-05 M | 0.0359 µM | 1.94e-05 M | 28.4 µM | > 3.3e-05 M | – | – | – | 9.42e-06 M | 1.38e-05 M |
| CCS(=O)(=O)N1CCN(c2ccc(N3CCCn4c(C(=O)O)c(CCCOc5cccc6ccccc56)c5cccc(c54)-c4c(C)nn(C)c4C3)cc2)CC1 (single isomer, unassigned; enantiomer 2) [Example 1-110, 7-{4-[4-(Ethylsulfonyl)piperazin-1-yl]phenyl}-9,11-dimethyl-1-[3-(1-naphthyloxy)propyl]-4,5,6,7,8,9-hexahydropyrazolo[3′,4′:7,8][1,5]diazecino[9,10,1-hi]indole-2-carboxylic Acid (Enantiomer 2)] | – | 15.3 µM | 2.58e-06 M | 1.69e-05 M | 0.0581 µM | 8.62e-06 M | 15.3 µM | 1.53e-05 M | – | – | – | 4.04e-06 M | 7.54e-06 M |
| CN1CCCn2c(C(=O)O)c(CCCOc3cccc4ccccc34)c3cccc(c32)-c2c(COc3ccc(-n4ccccc4=O)cc3)nn(C)c2C1 (single isomer, unassigned; enantiomer 2) [Example 1-116, 7,9-Dimethyl-1-[3-(1-naphthyloxy)propyl]-11-{[4-(2-oxopyridin-1(2H)-yl)phenoxy]methyl}-4,5,6,7,8,9-hexahydropyrazolo[3′,4′:7,8][1,5]diazecino[9,10,1-hi]indole-2-carboxylic Acid (Enantiomer 2)] | > 3.3e-05 M | 19.9 µM | 1.18e-05 M | > 3.3e-05 M | 0.0137 µM | 2.96e-05 M | 16.9 µM | 1.32e-05 M | – | – | – | 3.25e-06 M | – |
| Cn1nc(COc2ccc(N3CCOCC3)cc2)c2c1COCCCCn1c(C(=O)O)c(CCCOc3cccc4ccccc34)c3cccc-2c31 (single isomer, unassigned; enantiomer 2) [Example 123, 1-methyl-3-{[4-(morpholin-4-yl)phenoxy]methyl}-7-[3-(naphthalen-1-yloxy)propyl]-1,10,11,12,13,15-hexahydropyrazolo[4′,3′:9,10][1,6]oxazacycloundecino[8,7,6-hi]indole-8-carboxylic Acid (Enantiomer 2)] | – | 7.36 µM | 1.01e-05 M | 2.1e-05 M | 0.00314 µM | 4.32e-06 M | 4.11 µM | 3.13e-06 M | – | – | – | 2.28e-06 M | 1.14e-05 M |
| CCOCc1nn(C)c2c1-c1cccc3c(CCCOc4cccc5ccccc45)c(C(=O)O)n(c13)CCCCOC2 (single isomer, unassigned; enantiomer 2) [Example 170, 3-(ethoxymethyl)-1-methyl-7-[3-(naphthalen-1-yloxy)propyl]-1,10,11,12,13,15-hexahydropyrazolo[4′,3′:9,10][1,6]oxazacycloundecino[8,7,6-hi]indole-8-carboxylic Acid (Enantiomer 2)] | – | 15.6 µM | 4.36e-06 M | 2e-05 M | 0.00297 µM | 1.34e-05 M | 5.36 µM | 6.94e-06 M | – | – | – | 1.01e-05 M | 2.67e-05 M |
